This is an account of results in paper PMC2666795, “Bacterial Genome Partitioning: N-Terminal Domain of IncC Protein Encoded by Broad-Host-Range Plasmid RK2 Modulates Oligomerisation and DNA Binding” (Journal of Molecular Biology, 2009).

The target of one data set is T1, IncC2 (Escherichia coli, UniProt P07673).
T1 construct: gene incC; short form 259 aa (IncC1 without residues 1-105), His6-tagged from modified pET28a (pGBT343), expressed in E. coli BL21, nickel-agarose; thrombin cleavage of tag described
T1 sequence (P07673 106-364): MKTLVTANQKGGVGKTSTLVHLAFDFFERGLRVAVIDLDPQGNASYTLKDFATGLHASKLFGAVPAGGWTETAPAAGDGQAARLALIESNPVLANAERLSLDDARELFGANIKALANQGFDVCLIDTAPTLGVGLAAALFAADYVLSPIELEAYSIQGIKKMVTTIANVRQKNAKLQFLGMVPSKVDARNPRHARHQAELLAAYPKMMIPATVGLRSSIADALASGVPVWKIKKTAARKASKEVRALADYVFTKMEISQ
Briefly: glutaraldehyde cross-linking with the IncC1 N-terminal domain. Conditions: 2 mM ADP, 10 mM MgCl2, 25 mM phosphate pH 7.5; nucleotide-dependent binding of NTD to IncC2.

A further data set concerns the target T2, IncC1 (Escherichia coli, UniProt P07673).
T2 construct: gene incC; full-length 364 aa, His6-tagged from modified pET28a (pGBT342), expressed in E. coli BL21, nickel-agarose; thrombin cleavage of tag described; monomer 40 kDa, dimer 80 kDa with ATP
T2 sequence (P07673 1-364): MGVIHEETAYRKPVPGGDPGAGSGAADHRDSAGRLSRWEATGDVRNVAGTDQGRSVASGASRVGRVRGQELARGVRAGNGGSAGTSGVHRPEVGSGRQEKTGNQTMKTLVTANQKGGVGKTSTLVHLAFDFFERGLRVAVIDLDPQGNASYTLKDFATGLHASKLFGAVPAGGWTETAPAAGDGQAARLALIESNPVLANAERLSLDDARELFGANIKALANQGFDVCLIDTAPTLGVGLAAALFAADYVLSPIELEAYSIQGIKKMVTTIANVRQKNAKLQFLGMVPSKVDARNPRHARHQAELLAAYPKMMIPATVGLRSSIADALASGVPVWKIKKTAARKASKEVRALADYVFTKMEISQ
As to the kind of experiment: velocity sedimentation (analytical ultracentrifugation), dimer formation. In kind it is binding. Conditions: read-out: Kapp.

For data set [1], the target named is T3, IncC2 (259 aa), short ParA protein made from the second translational start of incC of plasmid RK2 (plasmid RK2 (IncP-1), UniProt P07673 106-364).
T3 construct: IncC2, the product of the second translational start of incC of plasmid RK2, 259 aa; it lacks the N-terminal domain (amino acids 1-105) of IncC1; numbers count on IncC1; also called His6-IncC2; source: E. coli BL21 (printed: C600 BL21), modified pET28a vector, purified (nickel-agarose)
T3 sequence (looked up): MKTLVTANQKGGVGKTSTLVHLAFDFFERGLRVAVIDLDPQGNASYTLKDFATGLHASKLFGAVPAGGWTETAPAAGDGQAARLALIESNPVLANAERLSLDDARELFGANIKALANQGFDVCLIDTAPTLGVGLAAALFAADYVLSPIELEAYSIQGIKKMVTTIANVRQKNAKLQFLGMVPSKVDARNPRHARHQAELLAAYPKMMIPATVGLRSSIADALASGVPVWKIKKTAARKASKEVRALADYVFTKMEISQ
Briefly: cross-linking; glutaraldehyde 0-0.1%, with 2 mM ATP; 5 μg of each protein in 50 μl, 10 mM MgCl2, 25 mM phosphate buffer pH 7.5; 30 min 37 °C, then 30 min 30 °C with glutaraldehyde; SDS-PAGE, Western blot with anti-IncC. To be noted: both partners purified. In general terms: A western blot detects proteins with antibodies after separation by electrophoresis.

Data set [2] concerns the molecule itself. Briefly: AUC; velocity sedimentation, 30 μM IncC1 with varying ATP concentrations, with magnesium; 50 mM sodium phosphate pH 8.0, 100 mM NaCl, 40,000 rpm, 4 °C.

With `Nc1ncnc2c1ncn2[C@@H]1O[C@H](COP(=O)(O)OP(=O)(O)O)[C@@H](O)[C@H]1O` [ADP], the “glutaraldehyde cross-linking with the IncC1 N-terminal domain” value at IncC2 is given as “In the presence of either ATP or ADP, the NTD was found to interact with IncC2”. Further, the Kd at IncC1 stood at 54 µM.

On to `Nc1ncnc2c1ncn2[C@@H]1O[C@H](COP(=O)(O)OP(=O)(O)OP(=O)(O)O)[C@@H](O)[C@H]1O` [ATP], for which the Kd on IncC1 is 7.7 µM.

B1: N-terminal domain of IncC1 (amino acids 1-105) (domain or fragment, plasmid RK2 (IncP-1), UniProt P07673 1-105, looked up)
chain: MGVIHEETAYRKPVPGGDPGAGSGAADHRDSAGRLSRWEATGDVRNVAGTDQGRSVASGASRVGRVRGQELARGVRAGNGGSAGTSGVHRPEVGSGRQEKTGNQT
notes: N-terminal domain of IncC1 of plasmid RK2, amino acids 1-105, 11 kDa; also called NTD; IncC1 NTD; source: E. coli, expressed from pSMB315 (pGBT340 with incC1-NTD), purified
On to B1, for which the binding result in data set [1] is on record as “binds”.

B2: IncC1 (364 aa), long ParA protein encoded by incC of broad-host-range plasmid RK2 (natural protein, plasmid RK2 (IncP-1), UniProt P07673 1-364, looked up)
chain: MGVIHEETAYRKPVPGGDPGAGSGAADHRDSAGRLSRWEATGDVRNVAGTDQGRSVASGASRVGRVRGQELARGVRAGNGGSAGTSGVHRPEVGSGRQEKTGNQTMKTLVTANQKGGVGKTSTLVHLAFDFFERGLRVAVIDLDPQGNASYTLKDFATGLHASKLFGAVPAGGWTETAPAAGDGQAARLALIESNPVLANAERLSLDDARELFGANIKALANQGFDVCLIDTAPTLGVGLAAALFAADYVLSPIELEAYSIQGIKKMVTTIANVRQKNAKLQFLGMVPSKVDARNPRHARHQAELLAAYPKMMIPATVGLRSSIADALASGVPVWKIKKTAARKASKEVRALADYVFTKMEISQ
notes: IncC1, the product of the first translational start of incC (parA) of IncP-1 plasmid RK2, 364 aa; also called His6-IncC1; His-IncC1; source: E. coli BL21 (printed: C600 BL21), modified pET28a vector, purified (nickel-agarose)
Usually stoichiometry N stands for a count of units in the complex or per binding partner. In the case of B2, in data set [2], the “stoichiometry N” value came to 2.
